Columns and labels:
PlatKO mice = assay: Outflow facility in protein treated PlatKO mouse eyes (Example 14); format: in vivo; details: intravitreal protein
Description: PlatKO and Mmp-9KO mice were also not given steroids prior to protein injections (FIG. 10c). Within each cohort, animals were divided into two groups:
1) Animals that received unilateral intravitreal injection with 2 μl of tPA (5 μg/μl, Actilyse; Boehringer Ingelheim, Ingelheim am Rhein, Germany) while the contralateral eye received 2 μl of BSA (5 μg/μl; Gold Biotechnology, St Louis, Mo., USA), and 2) Animals that received unilateral intravitreal injections with 2 μl of non-enzymatically active tPA (NE-tPA/S478A-tPA) (5 μg/μl; Innovative Research, Novi, Mich., USA) while the contralateral eye received 2 μl of BSA. Animals were euthanized two days after intravitreal injection.
Outflow facility determination: Mouse eyes were enucleated immediately after euthanasia. Outflow facility was determined using a constant pressure method, as previously described. Pressure was raised in steps of 4 cmH2O, from 8 cmH2O (5.88 mmHg) to 32 cmH2O (23.54 mmHg) by increasing the height of a column of fluid of BSS. Steady state was initially achieved after 10 minutes. […] Flow was constantly measured via a microfluidic flow sensor (0.07-1.5 uL/min, MFS1; Elveflow, Paris, France). […] Any eyes that developed visible leaks during outflow facility determination, or that had pressure-flow correlations with R^2<0.9, were excluded from analysis but were used for RNA quantification.

[1] = intravitreal use; toxicity attributed to arginine in commercial preparations; cited from earlier work
MMP-2, MMP-9, MMP-13 = assay: MMP expression in PA treated HTM cells (Examples 17, 18); format: cell-based; details: PA treated HTM cells

Substance: tissue plasminogen activator [tPA]
- increase in outflow facility compared to BSA treated eyes (PlatKO mice): 46%
- outflow facility, mean±standard deviation (PlatKO mice; no steroid, two days): 89±27×10^−5 μl/min/mmHg
- doses with reported retinal toxicity [1]: 50 to 100 µg
- MMP-2 expression (MMP-2, MMP-9, MMP-13; between treatments): not significantly different
- expression (FIG. 17C, MMP-9) (MMP-2, MMP-9, MMP-13; vs PA+BSA): significant upregulation

— US20210220450A1, “TREATMENT OF AN IOP CONDITION” (The Research Foundation for The State University of New York, priority 2013, published 2021)
